Experimental data reported in PMC11045757, “Group 3 medulloblastoma transcriptional networks collapse under domain specific EP300/CBP inhibition” (Nature Communications, 2024).
“And” between values parts separate entries of the source, which are not always exact repeats. Equal values may be shown once. Read-outs that look alike come from different tables or passages of the source.

Tests used:
Assay type in all cases: binding
EP300 bromodomain = molecular target: T1, EP300 bromodomain (Homo sapiens, UniProt Q09472); assay: Differential scanning fluorimetry (DSF) thermal shift
T1 construct: 6xHis (cleaved yes); host or cells: E. coli BL21 (DE3) RIL
T1 sequence (Q09472 1048-1161): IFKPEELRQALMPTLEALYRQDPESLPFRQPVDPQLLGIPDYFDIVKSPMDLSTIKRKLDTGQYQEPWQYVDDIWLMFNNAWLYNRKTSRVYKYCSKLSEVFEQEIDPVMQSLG
Description: (§1) At OD600 of 0.6, the culture was cooled down to 18 °C and induced with 0.1 mM IPTG. After 18 h growth, the culture was harvested by centrifugation at 6000 × g for 25 min and stored at -80 °C. Harvested cell pellets were re-suspended in 50 mM Na/K phosphate buffer (pH 7.4) containing 100 mM NaCl, 40 mM imidazole, 0.01% w/v lysozyme and 0.01% v/v Triton X-100 at 4 °C for 1 h, subjected to sonication and the lysate was clarified by centrifugation (30,000 × g for 45 min at 4 °C). Proteins were purified by FPLC at 4 °C using columns and chromatography materials from GE Healthcare. […] Proteins were purified to homogeneity by size exclusion chromatography using Superdex 75 equilibrated with elution buffer (50 mM HEPES pH 7.5, 100 mM NaCl, 2 mM DTT). All BRDs eluted as monomeric protein and were of crystallization grade quality (>95% purity as judged by SDS-PAGE). Pool fractions were combined, concentrated to 10–12 mg/ml, and aliquots were flash-frozen in liquid N2 and stored at −80 °C.
(§2) DSF experiments were performed with an Applied Biosystem StepOnePlus real-time PCR system (Thermo Fisher Scientific) using 96-well format plates, assayed in quadruplicate. For thermal shift determination, 5 μM protein was mixed with 100 μM compound in 50 mM HEPES, pH 7.5, 150 mM NaCl, 2 mM DTT, 2% DMSO, 5X SYPRO Orange (Thermo Fisher Scientific) in 20 μL reaction volumes. Reaction mixtures were heated from 25 to 95 °C at 1 °C/min with fluorescence readings every 0.5 °C at 610 nm. The observed thermal shift (ΔTm) was recorded as the difference between the Tm of sample and DMSO reference wells.

BRD4-BD1 (BRD4-1) = molecular target: T2, BRD4-BD1 (BRD4-1) (Homo sapiens, UniProt O60885); assay: as above; conditions: BRD4-BD1
T2 construct: BRD4-BD1 (residues 44-168); 6xHis (cleaved yes); host or cells: E. coli BL21 (DE3) RIL
Description: as §1, §2

[1] = molecular target: GFP-tagged CBP bromodomain (Homo sapiens, UniProt Q92793); assay: Microscale thermophoresis (MST); conditions: for Response (Dose Response Curve): MST raw response; for Kd: MST; for Bound (Fit Results): fitted MST response of bound state; for Bound (Fit Results) / Unbound (Fit Results): target clGFP-CBPBRD 5e-8; for Unbound (Fit Results): fitted MST response of unbound state
GFP-tagged CBP bromodomain, sequence (Q92793 1085-1192 limits assumed): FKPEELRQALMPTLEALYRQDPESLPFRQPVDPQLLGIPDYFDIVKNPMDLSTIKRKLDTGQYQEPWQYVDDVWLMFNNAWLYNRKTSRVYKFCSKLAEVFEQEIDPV
Description: MST experiments were performed in a Monolith NT.115 Pico instrument (NanoTemper Technologies) following published procedures. […] MST traces were recorded using standard parameters: 5 s MST power off, 30 s MST power on and 5 s MST power off. Measurements were taken at -1-0 s (cold region) and 10 s (hot region) and data were analyzed using the NTAnalysis software.

CBP bromodomain = molecular target: T3, CBP bromodomain (Homo sapiens, UniProt Q92793); assay: Differential scanning fluorimetry (DSF) thermal shift; conditions: for ΔTm (°C) CBP: DSF
T3 construct: CBP (residues 1081-1197); 6xHis (cleaved yes); host or cells: E. coli BL21 (DE3) RIL
T3 sequence (Q92793 1081-1197): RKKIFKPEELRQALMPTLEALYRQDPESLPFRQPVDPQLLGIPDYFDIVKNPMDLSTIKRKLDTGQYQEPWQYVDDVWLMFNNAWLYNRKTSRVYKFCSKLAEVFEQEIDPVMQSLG
Description: as §1, with “After” for “At OD600 of 0.6, the culture was cooled down to 18 °C and induced with 0.1 mM IPTG. After”, “All BRDs eluted as monomeric protein and were of crystallization grade quality (>95% purity as judged by SDS-PAGE).” left out
DSF experiments were performed with an Applied Biosystem StepOnePlus real-time PCR system (Thermo Fisher Scientific) using 96-well format plates, assayed in quadruplicate. For thermal shift determination, 5 μM protein was mixed with 100 μM compound in 50 mM HEPES, pH 7.5, 150 mM NaCl, 2 mM DTT, 2% DMSO, 5X SYPRO Orange (Thermo Fisher Scientific) in 20 μL reaction volumes.

[2] = Dose 1.52588e-10, single replicate run
[3] = Dose 3.05176e-10, single replicate run
[4] = Dose 6.10352e-10, single replicate run
[5] = Dose 1.2207e-9, single replicate run
[6] = Dose 2.44141e-9, single replicate run
[7] = Dose 4.88281e-9, single replicate run
[8] = Dose 9.76563e-9, single replicate run
[9] = Dose 1.95313e-8, single replicate run
[10] = Dose 3.90625e-8, single replicate run
[11] = Dose 7.8125e-8, single replicate run
[12] = Dose 1.5625e-7, single replicate run
[13] = Dose 3.125e-7, single replicate run
[14] = Dose 6.25e-7, single replicate run
[15] = Dose 1.25e-6, single replicate run
[16] = Dose 2.5e-6, single replicate run
[17] = Dose 5e-6, single replicate run
[18] = single replicate run, target clGFP-CBPBRD, TargetConcentration 5e-8, MST-Power Medium, unit inferred, read-out: Kd (Fit Results, Fit Model: Kd)

| SMILES | Response (Dose Response Curve) [1, 2] | Response (Dose Response Curve) [1, 3] | Response (Dose Response Curve) [1, 4] | Response (Dose Response Curve) [1, 5] | Response (Dose Response Curve) [1, 6] | Response (Dose Response Curve) [1, 7] | Response (Dose Response Curve) [1, 8] | Response (Dose Response Curve) [1, 9] | Response (Dose Response Curve) [1, 10] | Response (Dose Response Curve) [1, 11] | Response (Dose Response Curve) [1, 12] | Response (Dose Response Curve) [1, 13] | Response (Dose Response Curve) [1, 14] | Response (Dose Response Curve) [1, 15] | Response (Dose Response Curve) [1, 16] | Response (Dose Response Curve) [1, 17] | Kd [1, 18] | Bound (Fit Results) ([1]; single replicate run) | Unbound (Fit Results) ([1]; single replicate run) | further results |
| --- | --- | --- | --- | --- | --- | --- | --- | --- | --- | --- | --- | --- | --- | --- | --- | --- | --- | --- | --- | --- |
| COc1ccc(CCc2nc3cc(-c4c(C)noc4C)ccc3n2C[C@H](C)N2CCOCC2)cc1Cl [SGC-CBP30] | – | – | – | – | – | – | – | – | – | – | – | – | – | – | – | – | – | – | – | ΔTm (°C) (EP300 bromodomain; DSF thermal shift vs DMSO, EP300 bromodomain, Fig 2B): 7.9 °C; ΔTm (°C) (BRD4-BD1 (BRD4-1); DSF thermal shift vs DMSO, Fig 2B): 0 °C |
| COC1CCC(n2c(C3CCCC(=O)N3c3ccccc3)nc3cc(-c4c(C)noc4C)ccc32)CC1 (stereo not shown) [iCBP5-5] | 915.174 | 914.49 | 915.362 | 915.368 | 914.907 | 914.429 | 913.858 | 914.04 | 913.557 | 913.257 | 911.399 | 910.65 | 909.717 | 910.942 | 910.368 | 911.15 | 44.3 nM | 910.375 | 914.969 | – |
| COC1CCC(n2c(C3CCCC(=O)N3c3cccc(C(C)(C)C)c3)nc3cc(-c4c(C)noc4C)ccc32)CC1 (stereo not shown) [iCBP-6] | 893.145 and 893.496 and 892.759 | 891.612 and 893.465 and 892.592 | 892.684 and 894.151 and 892.213 | 892.641 and 893.04 and 893.233 | 892.502 and 892.231 and 892.986 | 891.878 and 891.94 and 891.268 | 891.027 and 892.27 and 891.532 | 892.42 and 891.618 and 892.241 | 890.537 and 890.96 and 891.609 | 889.07 and 889.984 and 889.085 | 888.52 and 887.496 and 888.851 | 887.2 and 888.101 and 888.455 | 887.415 and 887.704 and 886.214 | 888.032 and 886.878 and 886.638 | 887.475 and 888.923 and 888.41 | 888.712 and 888.775 and 886.626 | 20 nM and 15.2 nM and 54.7 nM | 887.696 and 887.896 and 886.89 | 892.536 and 893.196 and 892.626 | Kd ([1]; Figure 3C, read-out: MST Kd): 30 nM; ΔTm (°C) CBP (CBP bromodomain; Figure 3A, CBP bromodomain): 15.3 °C; ΔTm (°C) CBP (CBP bromodomain; Figure 3B, CBP): 15.3 °C; DSF ΔTm (°C) (CBP bromodomain; Figure 3C, DSF (values equal CBP column)): 15.3 °C; ΔTm (°C) EP300 (EP300 bromodomain; Figure 3B, DSF, EP300): 14.3 °C; ΔTm (°C) BRD4-BD1 (BRD4-BD1 (BRD4-1); Figure 3A, DSF): 3.2 °C |
